≈ marks a conversion by molar mass, not a printed value. Values belong to the compound of their own block, whether it stands above or below them.
Assays:
[1] = tested on: HCT-116; experiment: Antiproliferative activity against human HCT-116 cells assessed as reduction in cell viability incubated for 72 hrs by MTT assay; format: functional, cell-based; conditions: HCT-116, 72 h
[2] = tested on: MDA-MB-231; experiment: Antiproliferative activity against human MDA-MB-231 cells assessed as reduction in cell viability incubated for 72 hrs by MTT assay; format: functional, cell-based; conditions: MDA-MB-231, 72 h
[3] = tested on: MCF7; experiment: Antiproliferative activity against human MCF7 cells assessed as reduction in cell viability incubated for 72 hrs by MTT assay; format: functional, cell-based; conditions: MCF7, 72 h
[4] = Inhibition of Lipoxygenase (unknown origin); set-up: species or system Homo sapiens
[5] = tested on: MDCK; experiment: Cytotoxicity against dog MDCK cells assessed as inhibition of cell growth at 10 uM relative to control; format: functional, Canis lupus familiaris; set-up: scale not given: the % may be the effect or the level left
[6] = tested on: HepG2; experiment: Cytotoxicity against human HepG2 cells assessed as inhibition of cell growth at 10 uM incubated for 72 hrs by MTT assay relative to control; format: functional; set-up: scale not given: the % may be the effect or the level left
[7] = biological target: T1, Prostaglandin G/H synthase 1 (Ovis aries, UniProt P05979); experiment: Inhibition of ovine COX-1 by EIA method
T1 sequence (P05979 whole entry): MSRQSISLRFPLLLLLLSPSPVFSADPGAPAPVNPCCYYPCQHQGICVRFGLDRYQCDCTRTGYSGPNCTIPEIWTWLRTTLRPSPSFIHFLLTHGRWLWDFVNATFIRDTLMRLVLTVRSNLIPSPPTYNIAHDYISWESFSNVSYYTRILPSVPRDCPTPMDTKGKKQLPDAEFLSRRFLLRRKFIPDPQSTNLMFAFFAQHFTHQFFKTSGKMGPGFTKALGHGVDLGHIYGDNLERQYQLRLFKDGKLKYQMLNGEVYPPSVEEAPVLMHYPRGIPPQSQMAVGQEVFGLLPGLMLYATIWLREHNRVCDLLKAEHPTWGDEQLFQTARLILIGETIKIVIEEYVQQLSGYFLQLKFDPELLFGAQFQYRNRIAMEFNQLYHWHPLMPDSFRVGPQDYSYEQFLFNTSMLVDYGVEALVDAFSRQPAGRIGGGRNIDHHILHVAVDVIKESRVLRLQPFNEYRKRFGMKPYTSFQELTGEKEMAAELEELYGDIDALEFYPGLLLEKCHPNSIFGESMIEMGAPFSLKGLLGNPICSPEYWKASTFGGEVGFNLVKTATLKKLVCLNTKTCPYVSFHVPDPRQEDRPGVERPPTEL

[8] = tested on: A549; experiment: cells; conditions: Homo sapiens
Description: Antiproliferative activity against human A549 cells assessed as reduction in cell viability by MTT assay

[9] = Cytoprotective activity against H2O2-induced oxidative stress in human HBMEC-2 cells assessed as increase in cell viability incubated for 24 hrs by MTT assay; format: functional, cell-based; conditions: HBMEC-2, 24 h
[10] = tested on: PC-12; experiment: Cytoprotective activity against COCL2-induced cellular damage in rat PC12 cells assessed as reduction in cell viability incubated for 48 hrs by MTT assay; format: functional, cell-based; conditions: PC-12, 48 h
[11] = biological target: T2, Acetylcholinesterase (Homo sapiens, UniProt P22303); experiment: Inhibition of AChE (unknown origin) by Ellman's method
T2 sequence (P22303 whole entry): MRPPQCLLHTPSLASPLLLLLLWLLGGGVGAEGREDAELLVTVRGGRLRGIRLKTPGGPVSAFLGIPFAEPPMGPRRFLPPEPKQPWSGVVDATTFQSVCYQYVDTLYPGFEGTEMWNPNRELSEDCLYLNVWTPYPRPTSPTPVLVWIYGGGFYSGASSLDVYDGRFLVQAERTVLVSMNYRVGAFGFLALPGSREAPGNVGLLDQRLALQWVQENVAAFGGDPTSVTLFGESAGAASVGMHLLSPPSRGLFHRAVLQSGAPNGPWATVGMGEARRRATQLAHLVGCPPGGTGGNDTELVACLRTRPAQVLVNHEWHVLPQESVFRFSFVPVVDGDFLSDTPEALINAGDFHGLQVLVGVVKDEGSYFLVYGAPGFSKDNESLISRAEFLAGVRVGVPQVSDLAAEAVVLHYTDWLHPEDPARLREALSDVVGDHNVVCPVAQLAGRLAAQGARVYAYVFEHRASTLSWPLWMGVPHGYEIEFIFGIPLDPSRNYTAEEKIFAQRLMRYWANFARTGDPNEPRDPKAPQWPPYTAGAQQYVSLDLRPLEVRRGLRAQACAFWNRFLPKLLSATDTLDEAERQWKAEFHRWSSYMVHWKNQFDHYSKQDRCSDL

[12] = tested on: HUVEC; experiment: Protection against H2O2-induced oxidative stress in HUVEC cells; format: functional, cell-based; conditions: Homo sapiens
[13] = tested on: SH-SY5Y; experiment: Cytoprotective activity against H2O2-induced oxidative stress in human SH-SY5Y cells assessed as increase in cell viability incubated for 24 hrs by MTT assay; format: functional, cell-based
[14] = tested on: SH-SY5Y; experiment: Cytoprotective activity against OGD/R induced human SH-SY5Y cells assessed as assessed as cell survival rate at 10 uM measured after 8 hrs by MTT assay relative to control; format: functional
[15] = Solubility in water; format: physicochemical
[16] = biological target: T2, Acetylcholinesterase; experiment: Inhibition of AChE (unknown origin)
[17] = Solubility in water by HPLC analysis; format: physicochemical
[18] = Inhibition of accumulation of sorbitol in human Red blood cells; format: functional, cell-based; conditions: erythrocyte
[19] = biological target: Aldo-keto reductase family 1 member B1 (Rattus norvegicus, UniProt P07943); experiment: Inhibition of rat lens aldose reductase

Compound: C=C(C)[C@@H]1CC[C@]2(C(=O)OCc3nc(C)c(C)nc3C)CC[C@]3(C)[C@H](CC[C@@H]4[C@@]5(C)CC[C@H](O)C(C)(C)[C@@H]5CC[C@]43C)[C@@H]12
- Activity [5]: 26.5%
- Activity [6]: 99.87%

Compound: Cc1nc(C)c(C(=O)NC2CCN(C(=O)C3=Cc4ccccc4S3(=O)=O)CC2)nc1C
- IC50 [1]: > 10 µM
- IC50 [2]: > 10 µM
- IC50 [3]: > 10000 nM

Compound: Cc1nc(C)c(C(=O)NC2CCN(C(=O)C3=Cc4ccccc4S3(=O)=O)C2)nc1C (configuration not stated)
- IC50 [1]: > 10 µM
- IC50 [2]: > 10 µM
- IC50 [3]: > 10000 nM

Compound: COc1ccc(/C=C/C(=O)/C=C/c2nc(C)c(C)nc2C)cc1O
- IC50 [8]: 2190 nM

Compound: COc1cc(CNC(=O)c2ccc(O)c(O)c2)ccc1OCc1nc(C)c(C)nc1C
- EC50 [9]: 4.15 µM

Compound: Cc1nc(C)c(COC(=O)/C=C/c2ccc(OCc3nc(C)c(C)nc3C)cc2)nc1C
- EC50 [10]: 3.68 µM

Compound: COc1cc(/C=C/C(=O)c2ccc(OCCN3CCCC3)cc2)ccc1OCc1nc(C)c(C)nc1C
- IC50 [11]: 980 nM

Compound: COc1cc(C(=O)Nc2cccc(N(C)C)c2)ccc1OCc1nc(C)c(C)nc1C
- EC50 [10]: 17.4 µM

Compound: Cc1nc(C)c(/C=C/c2nc(C)c(C)nc2C)nc1C
- EC50 [12]: 25.6 µM

Compound: CCCCC(OC(=O)CN1CCN(C)CC1)c1ccc(I)cc1C(=O)OCc1nc(C)c(C)nc1C (configuration not stated)
- Activity [14]: 90%

Compound: COC(=O)C1=CO[C@H](OC)[C@H]2C(CN3CCN(Cc4nc(C)c(C)nc4C)CC3)=CC[C@@H]12
- IC50 [16]: 218 nM

Now from value to compound:

- IC50 [1]: 1.71 µM
- IC50 [2]: 3.9 µM
- IC50 [3]: 2080 nM
Compound: O=[N+]([O-])c1ccc2c(c1)S(=O)(=O)C=C2

- IC50 [4]: 7.5 µM
Compound: Cc1nc(C)c(/C=C2\CN(C)C/C(=C\c3nc(C)c(C)nc3C)C2=O)nc1C

- IC50 [7]: 500 nM
Compound: COc1ccc(/C=C2\CN(C)C/C(=C\c3nc(C)c(C)nc3C)C2=O)c(Cl)c1

- IC50 [1]: 6.44 µM
- IC50 [2]: 4.86 µM
- IC50 [3]: 3290 nM
Compound: Cc1nc(C)c(C(=O)N2CCN(C(=O)C3=Cc4c(Br)cccc4S3(=O)=O)CC2)nc1C

- EC50 [13]: 2560 nM
Compound: CC(=O)Oc1ccc(C[C@@H](OC(C)=O)C(=O)OCc2nc(C)c(C)nc2C)cc1OC(C)=O

- IC50 [1]: 2.67 µM
- IC50 [2]: 2.2 µM
- IC50 [3]: 1500 nM
Compound: Cc1nc(C)c(CN2CCN(C(=O)C3=Cc4c(Cl)cccc4S3(=O)=O)CC2)nc1C

- solubility [15]: > 0.1 µg/mL
Compound: C=CCC(CC=C)(OC(=O)[C@@H](Cc1ccc(OC(C)=O)c(OC(C)=O)c1)OC(=O)CN)c1nc(C)c(C)nc1C

- solubility [17]: 0.029 µg/mL (≈ 0.107 µM)
Compound: O=c1c(-c2ccc(O)cc2)coc2cc(O)cc(O)c12 [GENISTEIN]

- IC50 [18]: 2000 nM
- IC50 [19]: 320 nM
Compound: O=C(/C=C/c1ccc(O)cc1)c1ccc(O)cc1O [ISOLIQUIRITIGENIN]

From ChEMBL document CHEMBL6114994, “Ligustrazine as a multitarget scaffold in drug design and discovery” (Bioorg Med Chem, 2025)
